Article PMC4407688 (Drug metabolism and drug interactions, 2014)
Like-named read-outs stand apart in the source and are kept apart here.

Columns and labels:
OATP-1B3 = target: T1, OATP-1B3 (Homo sapiens, UniProt Q9NPD5); assay: Inhibition of [3H]CCK-8 cellular accumulation in OATP-1B3 transfected CHO cells; format: cell-based; details: for Inhibition of cellular accumulation of [3H]CCK-8 (in words): 25 and 50 μM, OATP-1B3 transfected cells; for Inhibition in net uptake rate of [3H]CCK-8 in OATP-1B3 cells (in words): increasing concentrations 0.1-100 μM
T1 sequence (Q9NPD5 1-702): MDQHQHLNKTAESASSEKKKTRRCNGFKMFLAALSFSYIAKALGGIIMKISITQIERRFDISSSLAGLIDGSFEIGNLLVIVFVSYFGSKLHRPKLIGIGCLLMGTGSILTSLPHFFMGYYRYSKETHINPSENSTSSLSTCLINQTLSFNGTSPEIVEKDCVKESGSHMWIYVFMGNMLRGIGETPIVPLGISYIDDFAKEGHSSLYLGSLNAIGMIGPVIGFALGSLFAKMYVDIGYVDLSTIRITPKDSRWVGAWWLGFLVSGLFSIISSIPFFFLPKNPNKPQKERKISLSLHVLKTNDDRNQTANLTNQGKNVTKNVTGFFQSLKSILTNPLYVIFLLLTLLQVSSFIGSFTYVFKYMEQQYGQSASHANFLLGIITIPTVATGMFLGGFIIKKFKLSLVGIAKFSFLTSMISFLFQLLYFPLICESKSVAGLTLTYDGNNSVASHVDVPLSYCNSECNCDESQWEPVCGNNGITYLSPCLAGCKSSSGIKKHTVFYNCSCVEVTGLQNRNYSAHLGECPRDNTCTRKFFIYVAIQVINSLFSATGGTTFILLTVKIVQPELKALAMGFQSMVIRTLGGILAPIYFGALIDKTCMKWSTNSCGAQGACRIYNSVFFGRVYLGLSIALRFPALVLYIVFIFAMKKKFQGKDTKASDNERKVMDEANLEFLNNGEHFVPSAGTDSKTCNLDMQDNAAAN

[1] = system: OATP-1B1 transfected CHO cells
OATP-1B1 [2] = target: T2, OATP-1B1 (Homo sapiens, UniProt Q9Y6L6); details: for Inhibition of cellular accumulation of [3H]ES (in words) / Diminished uptake of [3H]ES: 25 and 50 μM; for Diminished uptake of [3H]ES: p < 0.05
T2 sequence (Q9Y6L6 1-691): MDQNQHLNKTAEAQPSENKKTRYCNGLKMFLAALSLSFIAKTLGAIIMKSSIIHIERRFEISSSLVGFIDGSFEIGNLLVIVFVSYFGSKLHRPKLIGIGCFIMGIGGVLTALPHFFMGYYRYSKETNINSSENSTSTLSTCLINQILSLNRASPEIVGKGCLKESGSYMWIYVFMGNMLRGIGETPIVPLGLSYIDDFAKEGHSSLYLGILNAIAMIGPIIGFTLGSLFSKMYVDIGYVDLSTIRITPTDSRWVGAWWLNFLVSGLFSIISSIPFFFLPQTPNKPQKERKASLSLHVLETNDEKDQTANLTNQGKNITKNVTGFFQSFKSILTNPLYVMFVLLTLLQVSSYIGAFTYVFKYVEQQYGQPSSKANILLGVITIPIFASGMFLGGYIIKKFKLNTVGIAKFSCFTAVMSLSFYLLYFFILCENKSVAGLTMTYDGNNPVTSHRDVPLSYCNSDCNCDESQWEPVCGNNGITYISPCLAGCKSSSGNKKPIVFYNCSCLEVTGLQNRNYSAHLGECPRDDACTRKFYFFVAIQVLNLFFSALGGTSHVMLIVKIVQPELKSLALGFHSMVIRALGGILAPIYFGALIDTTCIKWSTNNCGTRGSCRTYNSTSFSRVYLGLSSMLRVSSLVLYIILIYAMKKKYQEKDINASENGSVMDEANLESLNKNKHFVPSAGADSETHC

[3] = system: OATP-1B3 transfected CHO cells; format: cell-based, Chinese hamster
OATP-1B1 [4] = details: 10 μM, Flp-In T-Rex293 cells expressing OATP-1B1; ref Hu et al. [24]; cited from earlier work
[5] = coadministration of pazopanib; ref Tan et al. [41]; cited from earlier work
[6] = coadministration together with CsA; ref [16], [34], [35]; cited from earlier work
[7] = 100 μM, 24 h, OATP-1B1 transfected cells, relative to positive control Triton X
[8] = 100 μM, 24 h, OATP-1B3 transfected cells, relative to positive control Triton X

For `C=CC(=O)Nc1cc2c(Nc3ccc(F)c(Cl)c3)ncnc2cc1OCCCN1CCOCC1` [Canertinib, canertinib], the “Inhibition of cellular accumulation of [3H]CCK-8 (in words)” value (“Inhibition … [3H]CCK-8 (in words)” for short) (OATP-1B3) was “did not show any significant effect”, the “Inhibition in net uptake rate of [3H]CCK-8 in OATP-1B3 cells (in words)” value (“Inhibition in net uptake rate” below) (OATP-1B3) was “no significant inhibition” and the Cytotoxic effect [1, 7] was “No cytotoxic effects”. For the same compound, the “Inhibition of cellular accumulation of [3H]ES (in words)” value (from here on “Inhibition … [3H]ES (in words)”) (OATP-1B1 [2]; OATP-1B1 transfected cells) was “did not show any significant inhibitory activity” and the Cytotoxic effect [3, 8] was “No cytotoxic effects”.
For `C#Cc1cccc(Nc2ncnc3cc(OCCOC)c(OCCOC)cc23)c1` [Erlotinib, erlotinib], the “Inhibition … [3H]CCK-8 (in words)” value (OATP-1B3) is given as “did not show any significant effect”, the “Inhibition in net uptake rate” value (OATP-1B3) is given as “no significant inhibition” and the “Inhibition of OATP-1B1 (in words)” value (OATP-1B1 [4]) is given as “inhibitory activity”. The Cytotoxic effect [1, 7] was “No cytotoxic effects”, the “Inhibition … [3H]ES (in words)” value (OATP-1B1 [2]; OATP-1B1 transfected cells) was “did not show any significant inhibitory activity” and the Cytotoxic effect [3, 8] was “No cytotoxic effects”.
In the case of `Cc1cn(-c2cc(NC(=O)c3ccc(C)c(Nc4nccc(-c5cccnc5)n4)c3)cc(C(F)(F)F)c2)cn1` [Nilotinib, nilotinib], the “Inhibition … [3H]CCK-8 (in words)” value (OATP-1B3) is listed as “did not show any significant effect”, the “Inhibition in net uptake rate” value (OATP-1B3) is listed as “no significant inhibition” and the “Inhibition of OATP-1B1 (in words)” value (OATP-1B1 [4]) is listed as “inhibitory potency”. For the same compound, the Cytotoxic effect [1, 7] was “No cytotoxic effects”, the “Inhibition … [3H]ES (in words)” value (OATP-1B1 [2]; OATP-1B1 transfected cells) was “significant inhibition” and the “Diminished uptake of [3H]ES” value (OATP-1B1 [2]; OATP-1B1 transfected cells) was about 90%. For the same compound, the Cytotoxic effect [3, 8] was “No cytotoxic effects”.
In the case of `Cc1ccc(Nc2nccc(N(C)c3ccc4c(C)n(C)nc4c3)n2)cc1S(N)(=O)=O` [Pazopanib], the “Inhibition … [3H]CCK-8 (in words)” value (OATP-1B3) is given as “did not show any significant effect”, the “Inhibition in net uptake rate” value (OATP-1B3) is given as “no significant inhibition” and the “Inhibition of OATP-1B1 (in words)” value (OATP-1B1 [4]) is given as “inhibitory potency”. The Cytotoxic effect [1] was “No cytotoxic effects”, the IC50 (OATP-1B1 [2]) was 3.89 ± 1.21 µM and the “Inhibition … [3H]ES (in words)” value (OATP-1B1 [2]; OATP-1B1 transfected cells) was “significant inhibition”. For the same compound, the “Diminished uptake of [3H]ES” value (OATP-1B1 [2]; OATP-1B1 transfected cells) was about 90% and the Cytotoxic effect [3] was “No cytotoxic effects”.
In the case of `CO[C@H]1/C=C/O[C@@]2(C)Oc3c(C)c(O)c4c(O)c(c(/C=N/N5CCN(C)CC5)c(O)c4c3C2=O)NC(=O)/C(C)=C\C=C\[C@H](C)[C@H](O)[C@@H](C)[C@@H](O)[C@@H](C)[C@H](OC(C)=O)[C@@H]1C` [Rifampicin], the IC50 (OATP-1B3) is reported as 3.67 ± 1.2 µM, the IC50 (OATP-1B1 [2]) is reported as 10.5 ± 1.15 µM and the “Reduced uptake of [3H]ES” value (OATP-1B1 [2]; 50 μM, OATP-1B1 transfected cells) is reported as 70%.
For `COc1cc2c(Nc3ccc(Br)cc3F)ncnc2cc1OCC1CCN(C)CC1` [Vandetanib, vandetanib], the IC50 (OATP-1B3) is listed as 18.1 ± 1.21 µM, the “Inhibition … [3H]CCK-8 (in words)” value (OATP-1B3) is listed as “significant inhibition” and the “Inhibition of OATP-1B1 (in words)” value (OATP-1B1 [4]) is listed as “inhibitory activity”. For the same compound, the Cytotoxic effect [1] was “No cytotoxic effects”, the “Inhibition … [3H]ES (in words)” value (OATP-1B1 [2]; OATP-1B1 transfected cells) was “did not show any significant inhibitory activity” and the Cytotoxic effect [3] was “No cytotoxic effects”.
For `CC(=O)O[C@H]1C(=O)[C@@]2(C)[C@H]([C@H](OC(=O)c3ccccc3)[C@]3(O)C[C@H](OC(=O)[C@H](O)[C@@H](NC(=O)c4ccccc4)c4ccccc4)C(C)=C1C3(C)C)[C@]1(OC(C)=O)CO[C@@H]1C[C@@H]2O` [paclitaxel], the Lower paclitaxel clearance [5] is listed as 14%.
For `CC[C@H](C)C(=O)O[C@H]1C[C@H](O)C=C2C=C[C@H](C)[C@H](CC[C@@H](O)C[C@@H](O)CC(=O)O)[C@H]21` [pravastatin], the “Increased AUC of statin” value [6] is listed as 9.93 fold.
For `CC(C)c1nc(N(C)S(C)(=O)=O)nc(-c2ccc(F)cc2)c1/C=C/[C@@H](O)C[C@@H](O)CC(=O)O` [rosuvastatin], the “Increased AUC of statin” value [6] is listed as 7.08 fold.
